Measurements taken from patent US9388164B2, “Methods of using pyruvate kinase activators” (AGIOS PHARMACEUTICALS, INC, priority 2011, dated 2016).

Columns and labels:
Type in all cases: biochemical
PKR wt = PKR wt (Homo sapiens, UniProt P30613); assay: PKR WT Single Point Percent Activation Assay; details: compound at 1 μM
Experimental: PKR WT Single Point Percent Activation Assay
(§1) A compound described herein was diluted with DMSO and tested at 1 μM concentration. The enzyme was diluted in 1× Buffer: (100 mM KCl, 50 mM Tris 7.5, 5 mM MgCl2, 1 mM DTT, 0.03% BSA). 2 μL of compound solution was first added into wells, and then 180 μL of enzyme solution was added. Assays were assembled except for ADP, and plates were stored for 60 minutes at RT. 20 μL ADP was added to start the assay and assay output was evaluated using OD340 at SpectraMax. The assay was run at room temperature.
PKR wt (100 ng/well), Tris pH 7.5 (50 mM), KCl (100 mM), MgCl2 (5 mM), ADP (0.48 mM), PEP (0.15 mM), NADH (180 μM), LDH (0.5 units, Sigma 59023), DTT (1 mM) and BSA (0.03%).

PKR R510Q = PKR R510Q (Homo sapiens, UniProt P30613, R510Q); assay: PKR R510Q Single Point Percent Activation Assay; details: compound at 1 μM; read-out: % Act. R510Q
PKR R510Q, sequence (P30613 whole entry R510Q): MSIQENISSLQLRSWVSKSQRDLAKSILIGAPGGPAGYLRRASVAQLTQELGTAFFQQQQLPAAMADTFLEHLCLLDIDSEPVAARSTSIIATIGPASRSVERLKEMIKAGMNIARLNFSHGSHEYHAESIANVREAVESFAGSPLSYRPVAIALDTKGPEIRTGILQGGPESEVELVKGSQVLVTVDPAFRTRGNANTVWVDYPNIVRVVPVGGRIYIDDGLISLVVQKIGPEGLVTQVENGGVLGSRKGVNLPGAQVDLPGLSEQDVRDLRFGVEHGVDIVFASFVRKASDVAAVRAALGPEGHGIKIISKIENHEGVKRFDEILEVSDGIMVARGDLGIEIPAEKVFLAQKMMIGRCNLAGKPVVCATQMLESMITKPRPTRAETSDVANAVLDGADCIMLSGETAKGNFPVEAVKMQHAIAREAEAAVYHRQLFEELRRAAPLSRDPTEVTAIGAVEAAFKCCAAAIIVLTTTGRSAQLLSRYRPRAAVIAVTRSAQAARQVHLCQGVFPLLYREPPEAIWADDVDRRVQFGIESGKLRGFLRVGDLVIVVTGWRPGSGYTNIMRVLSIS
Experimental: PKR R510Q Single Point Percent Activation Assay
as §1
PKR R510Q (40 ng/well), Tris pH 7.5 (50 mM), KCl (100 mM), MgCl2 (5 mM), ADP (0.2 mM), PEP (0.11 mM), NADH (180 μM), LDH (0.5 units, Sigma 59023), DTT (1 mM) and BSA (0.03%).

PKR T384W = PKR T384W (Homo sapiens, UniProt P30613); assay: PKR T384W Single Point Percent Activation Assay; details: compound at 1 μM
PKR T384W, sequence (P30613 whole entry T384M): as the sequence (P30613 whole entry R510Q) above, with T384M, Q510R counted along it
Experimental: PKR T384W Single Point Percent Activation Assay
as §1, with “180 μL enzyme solution” for “180 μL of enzyme solution”
PKR T384W soluble (300 ng/well), Tris pH 7.5 (50 mM), KCl (100 mM), MgCl2 (5 mM), ADP (0.08 mM), PEP (0.23 mM), NADH (180 μM), LDH (0.5 units, Sigma 59023), DTT (1 mM) and BSA (0.03%).

PKR R532W = PKR R532W (Homo sapiens, UniProt P30613, R532W); assay: PKR R532W Single Point Percent Activation Assay; details: compound at 1 μM; read-out: % Act. R532W
PKR R532W, sequence (P30613 whole entry R532W): as the sequence (P30613 whole entry R510Q) above, with Q510R, R532W counted along it
Experimental: PKR R532W Single Point Percent Activation Assay
as §1
PKR R532W (100 ng/well), Tris pH 7.5 (50 mM), KCl (100 mM), MgCl2 (5 mM), ADP (0.36 mM), PEP (0.1 mM), NADH (180 μM), LDH (0.5 units, Sigma 59023), DTT (1 mM) and BSA (0.03%).

PKR wt, sequence (P30613 whole entry): as the sequence (P30613 whole entry R510Q) above, with Q510R counted along it

| Structure (SMILES) | activation at 1 µM (PKR wt) | activation at 1 µM (PKR R510Q) | % Act. T384W (PKR T384W) | activation at 1 µM (PKR R532W) |
| --- | --- | --- | --- | --- |
| COC1(Cc2ccccc2)CN(C(=O)c2ccc(NS(=O)(=O)c3cccc4cccnc34)cc2)C1 | 101 to 500% | 101 to 500% | B (a % activation at 1 μM of from 101 to 500) | 101 to 500% |
| O=C(c1ccc(NS(=O)(=O)c2cccc3cccnc23)c(F)c1)N1CC(Oc2ccccc2)C1 | 101 to 500% | 101 to 500% | B (a % activation at 1 μM of from 101 to 500) | 101 to 500% |
| Cc1cc(C(=O)N2CC(N(C)Cc3ccccc3)C2)ccc1NS(=O)(=O)c1cccc2cccnc12 | 101 to 500% | 101 to 500% | A (a % activation at 1 μM of from 1 to 100) | 101 to 500% |
| Cc1cc(C(=O)N2CC(OC(=O)c3ccccn3)C2)ccc1NS(=O)(=O)c1cccc2cccnc12 | 1 to 100% | 101 to 500% | A (a % activation at 1 μM of from 1 to 100) | 1 to 100% |
| O=C(c1ccc(NS(=O)(=O)c2cccc3cccnc23)cc1)N1CC(Nc2ccccc2)C1 | 1 to 100% | 1 to 100% | A (a % activation at 1 μM of from 1 to 100) | 1 to 100% |
| COc1ccccc1NC1CN(C(=O)c2ccc(NS(=O)(=O)c3cccc4cccnc34)cc2)C1 | 1 to 100% | 101 to 500% | A (a % activation at 1 μM of from 1 to 100) | 1 to 100% |
| COc1ccccc1NC1CN(C(=O)c2ccc(NS(=O)(=O)c3cccc4cccnc34)c(C)c2)C1 | 1 to 100% | 101 to 500% | A (a % activation at 1 μM of from 1 to 100) | 1 to 100% |
| COc1ccccc1NC1CN(C(=O)c2ccc(NS(=O)(=O)c3cccc4cccnc34)c(F)c2)C1 | 1 to 100% | 1 to 100% | A (a % activation at 1 μM of from 1 to 100) | 1 to 100% |
| COc1ccccc1NC1CN(C(=O)c2ccc(S(=O)(=O)Nc3cccc4cccnc34)cc2)C1 | 101 to 500% | 101 to 500% | A (a % activation at 1 μM of from 1 to 100) | 101 to 500% |
| O=C(c1ccc(S(=O)(=O)Nc2cccc3cccnc23)cc1)N1CC(OCc2ccccc2)C1 | 101 to 500% | 101 to 500% | B (a % activation at 1 μM of from 101 to 500) | 1 to 100% |
| Cc1cc(C(=O)N2CC(OCc3ccccc3)C2)ccc1NS(=O)(=O)c1cccc2cccnc12 | 101 to 500% | 101 to 500% | B (a % activation at 1 μM of from 101 to 500) | 1 to 100% |
| O=C(NC1CN(C(=O)c2ccc(NS(=O)(=O)c3cccc4cccnc34)c(F)c2)C1)c1ccccn1 | 101 to 500% | 101 to 500% | B (a % activation at 1 μM of from 101 to 500) | 1 to 100% |
| CN(c1ccccc1)C1CN(C(=O)c2ccc(NS(=O)(=O)c3cccc4cccnc34)cc2)C1 | 101 to 500% | 101 to 500% | B (a % activation at 1 μM of from 101 to 500) | 101 to 500% |
| O=C(Cc1ccccc1)OC1CN(C(=O)c2ccc(NS(=O)(=O)c3cccc4cccnc34)cc2)C1 | 101 to 500% | 101 to 500% | B (a % activation at 1 μM of from 101 to 500) | 1 to 100% |
| O=C(OC1CN(C(=O)c2ccc(NS(=O)(=O)c3cccc4cccnc34)c(F)c2)C1)c1ccccn1 | 101 to 500% | 101 to 500% | B (a % activation at 1 μM of from 101 to 500) | 101 to 500% |
| CC1(O)CN(C(=O)c2ccc(NS(=O)(=O)c3cccc4cccnc34)c(F)c2)C1 | 101 to 500% | 101 to 500% | B (a % activation at 1 μM of from 101 to 500) | 1 to 100% |
| CC1(O)CN(C(=O)c2ccc(NS(=O)(=O)c3cccc4cccnc34)cc2)C1 | 101 to 500% | 101 to 500% | B (a % activation at 1 μM of from 101 to 500) | 1 to 100% |

| Structure (SMILES) | activation at 1 µM (PKR wt) | activation at 1 µM (PKR R510Q) | % Act. T384W (PKR T384W) | activation at 1 µM (PKR R532W) |
| --- | --- | --- | --- | --- |
| COc1cc(NS(=O)(=O)c2cccc3cccnc23)ccc1C(=O)N1CC(C)(O)C1 | 101 to 500% | 101 to 500% | B (a % activation at 1 μM of from 101 to 500) | 1 to 100% |
| COc1ccccc1OC1CN(C(=O)c2ccc(NS(=O)(=O)c3cccc4cccnc34)cc2)C1 | 101 to 500% | 101 to 500% | B (a % activation at 1 μM of from 101 to 500) | 1 to 100% |
| COc1cc(NS(=O)(=O)c2cccc3cccnc23)ccc1C(=O)N1CC(O)(Cc2ccccc2)C1 | 101 to 500% | 101 to 500% | B (a % activation at 1 μM of from 101 to 500) | 101 to 500% |
| Cc1cc(C(=O)N2CC(O)(Cc3ccccc3)C2)ccc1NS(=O)(=O)c1cccc2cccnc12 | 101 to 500% | 101 to 500% | B (a % activation at 1 μM of from 101 to 500) | 1 to 100% |
| Cc1cc(C(=O)N2CC(OC(=O)NC(C)C)C2)ccc1NS(=O)(=O)c1cccc2cccnc12 | 101 to 500% | 101 to 500% | A (a % activation at 1 μM of from 1 to 100) | 101 to 500% |
| COc1cc(NS(=O)(=O)c2cccc3cccnc23)ccc1C(=O)N1CC(OC(=O)NC(C)C)C1 | 101 to 500% | 101 to 500% | B (a % activation at 1 μM of from 101 to 500) | 101 to 500% |
| CC(C)NC(=O)OC1CN(C(=O)c2ccc(NS(=O)(=O)c3cccc4cccnc34)c(F)c2)C1 | 101 to 500% | 101 to 500% | B (a % activation at 1 μM of from 101 to 500) | 1 to 100% |
| CC(C)NC(=O)OC1CN(C(=O)c2ccc(NS(=O)(=O)c3cccc4cccnc34)cc2)C1 | 101 to 500% | 101 to 500% | B (a % activation at 1 μM of from 101 to 500) | 101 to 500% |
| Cc1cc(C(=O)N2CC(O)(c3ccccc3)C2)ccc1NS(=O)(=O)c1cccc2cccnc12 | 101 to 500% | 101 to 500% | B (a % activation at 1 μM of from 101 to 500) | 101 to 500% |
| COc1cc(NS(=O)(=O)c2cccc3cccnc23)ccc1C(=O)N1CC(O)(c2ccccc2)C1 | 101 to 500% | 101 to 500% | B (a % activation at 1 μM of from 101 to 500) | 101 to 500% |
| C=CCNC(=O)NC1CN(C(=O)c2ccc(NS(=O)(=O)c3cccc4cccnc34)cc2)C1 | 101 to 500% | 101 to 500% | B (a % activation at 1 μM of from 101 to 500) | 101 to 500% |
| C=CCNC(=O)NC1CN(C(=O)c2ccc(NS(=O)(=O)c3cccc4cccnc34)c(OC)c2)C1 | 101 to 500% | 101 to 500% | B (a % activation at 1 μM of from 101 to 500) | 101 to 500% |
| O=C(c1ccc(NS(=O)(=O)c2cccc3cccnc23)cc1)N1CC(O)C1 | 101 to 500% | 101 to 500% | B (a % activation at 1 μM of from 101 to 500) | 101 to 500% |
| Cc1cc(C(=O)N2CC(O)C2)ccc1NS(=O)(=O)c1cccc2cccnc12 | 101 to 500% | 101 to 500% | A (a % activation at 1 μM of from 1 to 100) | 101 to 500% |
| COc1cc(NS(=O)(=O)c2cccc3cccnc23)ccc1C(=O)N1CC(O)C1 | 101 to 500% | 101 to 500% | A (a % activation at 1 μM of from 1 to 100) | 101 to 500% |
| O=C(c1ccc(NS(=O)(=O)c2cccc3cccnc23)cc1)N1CC(=Cc2ccccc2)C1 | 1 to 100% | 1 to 100% | A (a % activation at 1 μM of from 1 to 100) | 1 to 100% |
